Assays:
E. faecalis = experiment: MBEC, biofilm eradication, E. faecalis; format: cell-based, Enterococcus faecalis; conditions: 24 hours, 37 °C, TSB
Method: (§1) A regrowth assay was used to establish the MBEC of a compound to evaluate the antibiofilm activity.
(§2) Biofilm eradication experiments were performed using a pegged-lid microtiter plate assay to determine the MBEC values for compounds of interest, as previously described. […] Sci. Rep. 2017, 7, 2003; and Raval, Y. S., Flurin, L., Mohamed, A., Greenwood-Quaintance, K. E., Beyenal, H., & Patel, R. In Vitro Activity of Hydrogen Peroxide and Hypochlorous Acid Generated by Electrochemical Scaffolds Against Planktonic and Biofilm Bacteria. Antimicrob Agents Chemother. 2021, 65, e01966-20. Briefly, […] of mid-log phase culture diluted to ca. 10^6 CFU/mL in tryptic soy broth (TSB) was added to wells of plat-bottom 96-well plates (Thermo Scientific, 266120) and covered with 96-pegged lid (Thermo Scientific, 445497). Plates were incubated to establish bacterial biofilms after incubation at 37 °C for 24 hours. The pegged lid was then removed, washed with PBS, and transferred to another 96-well plate containing 2-fold serial dilutions of the test compounds (the “challenge plate”). The total volume in each well was […], comprising of […] of compound diluted in water/DMSO, with a starting DMSO concentration of 2.5%, and […] of TSB. Plates were incubated statically at 37 °C for 24 hours. Next, the pegged lids were transferred to a fresh 96-well plate containing […] of TSB and incubated overnight at 37 °C. MBEC values were determined as the lowest test concentration that resulted eradicated biofilm (i.e., wells displaying no turbidity in the final plate).

HA-MRSA = experiment: MBEC, biofilm eradication, HA-MRSA; format: cell-based, Staphylococcus aureus; conditions: 24 hours, 37 °C, TSB
Method: as §1, §2

P. aeruginosa = experiment: MBEC, biofilm eradication, P. aeruginosa; format: cell-based, Pseudomonas aeruginosa; conditions: 24 hours, 37 °C, TSB
Method: as §1, §2

A. baumannii [1] = experiment: MBEC, biofilm eradication, A. baumannii; format: cell-based, Acinetobacter baumannii; conditions: 24 hours, 37 °C, TSB
Method: as §1, §2

A. baumannii [2] = experiment: MIC against A. baumannii; format: cell-based; conditions: Acinetobacter baumannii, 72 h
Method: (§3) The term “minimum inhibitory concentration (MIC)” means the lowest concentration of an antimicrobial agent that will inhibit the visible growth of a microorganism after overnight incubation. MIC values against bacteria, for example, the Gram-positive Staphylococcus aureus and Enterococcus faecalis and the Gram-negative Escherichia coli and Pseudomonas aeruginosa were determined by standard methods. See also P. A. Wayne, Methods for Dilution Antimicrobial Tests for Bacteria that Grow Aerobically; Approved Standard, Ninth Edition, 2012, CLSI Document M07-A9, Vol. 32 No. 2.
(§4) Biological testing procedures were adapted from prior work by Melander and coworkers. For all biological assays, laboratory strains of methicillin-susceptible Staphylococcus aureus MSSA (SH1000), Staphylococcus aureus CA-MRSA (USA300-0114), Staphylococcus aureus HA-MRSA (ATCC 33591), Escherichia coli (MC4100), Enterococcus faecalis (OG1RF), Acinetobacter baumannii (ATCC 17978), were grown with shaking at 37 °C overnight from freezer stocks in 5 mL of the indicated media: SH1000, OG1RF, MC4100, USA300-0114, and ATCC 17978 were grown in BDTM Mueller-Hinton broth (MHB), whereas ATCC 33591 was grown in BDTM tryptic soy broth (TSB). The inoculum were then streaked onto Mueller-Hinton agar (MHA) plates and grown overnight at 37 °C. From the plates, single colonies were selected, diluted into 50 mL of fresh media and grown overnight at 37 °C with shaking for use in the MIC assays. Optical density (OD) measurements were obtained using a SpectraMax iD3 plate reader (Molecular Devices, United States).
(§5) Compounds were serially diluted two-fold from stock solutions (1.0 mM) to yield twelve 100 μL test concentrations, wherein the starting concentration of dimethyl sulfoxide (DMSO) was 2.5%. Overnight S. aureus, E. faecalis, E. coli, A. baumannii, USA300-0114 (CA-MRSA), and ATCC 33591 (HA-MRSA) cultures were diluted to ca. 10^6 CFU/mL in MHB or TSB and regrown to mid-exponential phase, as determined by optical density recorded at 600 nm (OD600). All cultures were then diluted again to ca. 10^6 CFU/mL and 100 μL were inoculated into each well of a U-bottom 96-well plate (Corning, 351177) containing 100 μL of compound solution. Plates were incubated statically at 37 °C for 72 hours upon which wells were evaluated visually for bacterial growth. The MIC was determined as the lowest concentration of compound resulting in no bacterial growth visible to the naked eye, based on the highest value in three independent experiments. Aqueous DMSO controls were conducted as appropriate for each compound.
(§6) The prepared library of biscationic amphiphilic compounds was assessed for performance as antibacterial disinfectants by determining the minimum inhibitory concentration (MIC) for each against a panel of bacteria. The bacteria selected for the study were chosen to evaluate the broad spectrum antimicrobial performance of the QPCs, and therefore, included both Gram-positive and Gram-negative bacterial strains, including those with known antimicrobial resistance mechanisms. These bacteria include the Gram-positive strains of methicillin-susceptible Staphylococcus aureus [MSSA; SH1000], community-acquired methicillin-resistant Staphylococcus aureus [CA-MRSA; USA 300-0114], hospital-acquired methicillin-resistant Staphylococcus aureus [HA-MRSA; ATCC 33591] and the […], Escherichia coli [MC4100], Acinetobacter baumannii [ATCC 17498] and Pseudomonas aeruginosa [PAO1].

CA-MRSA (USA300-0114) = experiment: MIC against community-acquired methicillin-resistant S. aureus (CA-MRSA); format: cell-based; conditions: Staphylococcus aureus, 72 h
Method: as §3, §4, §5, §6

P. aeruginosa (PAO1) = experiment: MIC against P. aeruginosa; format: cell-based; conditions: Pseudomonas aeruginosa; P. aeruginosa (PAO1); 72 hours, 37 °C; read-out: MIC
Method: as §3, §4, §5, §6

panel of bacteria [3] = experiment: MIC across the panel of bacteria (Gram-positive and Gram-negative); format: cell-based; conditions: for MIC: read-out: MIC values; for antimicrobial activity / bioactivity (in words): over the bacterial panel
Method: as §3, §4, §5, §6

E. faecalis (OG1RF) = experiment: MIC against E. faecalis; format: cell-based; conditions: Enterococcus faecalis, 72 h
Method: as §3, §4, §5, §6

red blood cells = experiment: Red Blood Cell (RBC) Lysis Assay (lysis20); format: cell-based, sheep; conditions: for Lysis20: concentration inducing 20% RBC lysis, sheep blood, 1 hour, 37 °C
Method: RBC lysis assays were performed on mechanically defibrinated sheep blood (Hemostat Labs: DSB030). An aliquot of 1.5 mL blood was placed into a microcentrifuge tube and centrifuged at 3,800 rpm for ten minutes. The supernatant was removed, and the cells were resuspended with 1 mL of phosphate-buffered saline (PBS). The suspension was centrifuged as described above, the supernatant was removed, and cells were resuspended 4 additional times in 1 mL PBS. The final cell suspension was diluted twentyfold with PBS. Compounds were serially diluted with PBS two-fold from stock solutions (1.0 mM) to yield 100 μL of twelve test concentrations on a flat-bottom 96-well plate (Corning, 351172), wherein the starting concentration of DMSO was 2.5%. To each of the wells, 100 μL of the twentyfold suspension dilution was then inoculated. TritonX (1% by volume) served as a positive control (100% lysis marker) and sterile PBS served as a negative control (0% lysis marker). Samples were then placed in an incubator at 37 °C and shaken at 200 rpm. After 1 hour, the samples were centrifuged at 3,800 rpm for ten minutes. The absorbance of the supernatant was measured with a UV spectrometer at a 540 nm wavelength. The concentration inducing 20% RBC lysis was then calculated for each compound based upon the absorbances of the TritonX and PBS controls. Aqueous DMSO controls were conducted as appropriate for each compound.
The potential cytotoxicity of the compounds was also considered with the evaluation of hemolysis (lysis20) assays with 20% lysis of red blood cells serving as an indicator of potentially toxic compounds. Finally, the bioactivity of these compounds were benchmarked against a commercial benzalkonium chloride source (BAC; 70% benzyldimethyldodecylammonium chloride, and 30% benzyldimethyltetradecylammonium chloride) as well as some previously reported disinfectant compounds from the inventors' groups; included were bisQPC ^PhP6P-10,10 as well as ^PhP2P-10,10 and 12(2)12. A detailed description of the experimental procedures used to evaluate bioactivity and hemolysis assays are described above.

HA-MRSA (ATCC 33591) = experiment: MIC against hospital-acquired methicillin-resistant S. aureus (HA-MRSA); format: cell-based; conditions: Staphylococcus aureus, 72 h
Method: as §3, §4, §5, §6

E. coli (MC4100) = experiment: MIC against E. coli; format: cell-based; conditions: Escherichia coli, 72 hours, 37 °C
Method: as §3, §4, §5, §6

MSSA (SH1000) = experiment: MIC against methicillin-susceptible S. aureus (MSSA); format: cell-based; conditions: Staphylococcus aureus; MSSA (SH1000); 72 hours, 37 °C; read-out: MIC
Method: as §3, §4, §5, §6

panel of bacteria [4] = conditions: Gram-positive and Gram-negative pathogens; earlier generation compound; cited from earlier work

SMILES | MBEC (E. faecalis) [µM] | MBEC (HA-MRSA) [µM] | MBEC (P. aeruginosa) [µM] | MBEC (A. baumannii [1]) [µM] | MIC (A. baumannii [2]) [µM] | MIC (CA-MRSA (USA300-0114)) [µM] | MIC (P. aeruginosa (PAO1)) [µM] | MIC (panel of bacteria [3]) [µM] | MIC (E. faecalis (OG1RF)) [µM] | hemolysis (lysis20) (in words) (red blood cells) | Lysis20 (red blood cells) [µM] | MIC (HA-MRSA (ATCC 33591)) [µM] | MIC (E. coli (MC4100)) [µM] | MIC (MSSA (SH1000)) [µM] | antimicrobial activity / bioactivity (in words) (panel of bacteria [3]) | antimicrobial efficacy (in words, earlier work) (panel of bacteria [4])
CCCCCCCCCC[N+](C)(C)CCCCCCCCCC.[Cl-] [DDAC, didecyldimethylammonium chloride] | 16 | 16 | >250 | 8 | – | – | – | – | – | – | – | – | – | – | – | –
CCCCCCCCC[P+](CC[P+](CCCCCCCCC)(C1CCCCC1)C1CCCCC1)(C1CCCCC1)C1CCCCC1 [^CyP2P-9,9] | – | – | – | – | 16 | 1 | 32 | 16 | 16 | diminished hemolysis over the commercial BAC control | 125 | 2 | 16 | 1 | – | –
CCCCCCCCCCC[P+](CC[P+](CCCCCCCCCCC)(C1CCCCC1)C1CCCCC1)(C1CCCCC1)C1CCCCC1 [^CyP2P-11,11] | – | – | – | – | 4 | 1 | 8 | 1 to 8 | 8 | – | 8 | 1 | 4 | 1 | single-digit micromolar activity | –
CCCCCCCCCCCC[P+](CC)(CC)CC[P+](CC)(CC)CCCCCCCCCCCC [^EtP2P-12,12] | – | – | – | – | 2 | 1 | 8 | – | 16 | – | 8 | 1 | 2 | 1 | single-digit micromolar activity with just one exception | –
CCCCCCCCCC[P+](CCCCCC[P+](CCCCCCCCCC)(c1ccccc1)c1ccccc1)(c1ccccc1)c1ccccc1 [^PhP6P-10,10, reference compound] | – | – | – | – | 4 | 1 | 2 | 1 to 4 | 2 | – | 8 | 1 | 2 | 1 | – | high degree of antimicrobial efficacy
